Measurements from patent US8513271B2, “Pyrimidine compounds as delta opioid receptor modulators” (Janssen Pharmaceutica, NV, priority 2009, dated 2013).
Read-outs that look alike come from different tables or passages of the source.

Columns and labels:
delta opioid receptor [1] = target: T1, delta opioid receptor (Mus musculus, UniProt P32300); assay: [35S]GTPγS binding assay in NG108-15 cell membranes (delta opioid functional assay), 200 nM screen; type: biochemical; settings: NG108-15 cell membranes; for EC50 / GTPγS δ-RelEfficacy @200 nM: averages if tested more than once; for GTPγS δ-opioid receptor Rel Efficacy: relative efficacy from dose response; for GTPγS δ-RelEfficacy @200 nM: 200 nM test compound, relative to calculated max of SNC80 dose response curve
T1 construct: NG108-15 cell membranes were purchased from Applied Cell Sciences (Rockville, Md.); host or cells: NG108-15 cell membranes
T1 sequence (P32300 whole entry): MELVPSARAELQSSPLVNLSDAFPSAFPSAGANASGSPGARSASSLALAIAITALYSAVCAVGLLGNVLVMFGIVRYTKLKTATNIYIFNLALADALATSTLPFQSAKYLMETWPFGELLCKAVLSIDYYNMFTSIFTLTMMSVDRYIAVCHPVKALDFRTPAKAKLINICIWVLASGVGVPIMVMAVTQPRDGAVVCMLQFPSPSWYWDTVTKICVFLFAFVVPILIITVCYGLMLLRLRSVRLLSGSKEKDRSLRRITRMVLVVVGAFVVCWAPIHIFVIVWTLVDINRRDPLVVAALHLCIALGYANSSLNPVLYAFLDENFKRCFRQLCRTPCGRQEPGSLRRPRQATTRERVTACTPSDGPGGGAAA

delta opioid receptor [2] = target: T2, delta opioid receptor (Rattus norvegicus, UniProt P33533); assay: Rat brain delta opioid receptor binding assay; settings: rat forebrain, [3H]naltrindole ligand
T2 construct: the forebrains were homogenized in Tris buffer in a Teflon®-glass homogenizer; from tissue; host or cells: forebrain of male Wistar rats, particulate (membrane) preparation
T2 sequence (P33533 whole entry): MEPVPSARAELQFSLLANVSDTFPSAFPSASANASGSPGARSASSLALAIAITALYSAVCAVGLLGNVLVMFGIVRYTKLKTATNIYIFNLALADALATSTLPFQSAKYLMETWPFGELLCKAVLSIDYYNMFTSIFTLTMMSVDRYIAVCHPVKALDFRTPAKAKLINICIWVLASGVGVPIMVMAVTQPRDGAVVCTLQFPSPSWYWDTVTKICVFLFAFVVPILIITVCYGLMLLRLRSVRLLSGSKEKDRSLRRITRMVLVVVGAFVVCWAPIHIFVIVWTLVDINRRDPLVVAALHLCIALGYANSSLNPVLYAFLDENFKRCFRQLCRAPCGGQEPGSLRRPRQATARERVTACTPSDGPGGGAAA

[3] = read-out: GTPγS δ-opioid receptor EC50
[4] = δ-binding (Naltrindole ligand) Ki
[5] = read-out: δ-binding (Naltrindole ligand) Ki
[6] = GTPγS δ-opioid receptor EC50 (μM)

COc1cccc(Oc2nc(-c3cncnc3)ncc2NC[C@@H]2CCCN2)c1 [Cpd 99]
EC50 (delta opioid receptor [1]; [3]): 0.939 µM | Ki (delta opioid receptor [2]; [4]): 59 nM

COc1ccc(Oc2nc(-c3cncc(C#N)c3)ncc2NC[C@H]2COCCN2)cc1 [Cpd 280]
EC50 (delta opioid receptor [1]; [3]): 0.181 µM | GTPγS δ-opioid receptor Rel Efficacy (delta opioid receptor [1]): 0.998 | Ki (delta opioid receptor [2]; [5]): 6 nM

COc1ccc(Oc2nc(-c3cccc4cc[nH]c34)ncc2NC[C@@H]2CCCN2)cc1 [Cpd 119]
Ki (delta opioid receptor [2]; [5]): 4020 nM

N#Cc1cncc(-c2ncc(NC[C@@H]3CCCN3)c(Oc3ccc(OCC(F)(F)F)cc3)n2)c1 [Cpd 122]
Ki (delta opioid receptor [2]; [5]): 122 nM

COc1ccc(Oc2nc(-c3cccc4[nH]ccc34)ncc2NC[C@@H]2CCCN2)cc1 [Cpd 117]
Ki (delta opioid receptor [2]; [5]): 157 nM

COc1c(F)cc(Oc2nc(-c3cncc(C#N)c3)ncc2NC[C@@H]2CCCN2)cc1F [Cpd 96]
EC50 (delta opioid receptor [1]; [3]): 0.749 µM | Ki (delta opioid receptor [2]; [4]): 35 nM

COc1ccc(Oc2nc(-c3cncnc3)ncc2NC[C@@H]2CCCN2)c(F)c1F [Cpd 103]
EC50 (delta opioid receptor [1]; [3]): 0.311 µM | Ki (delta opioid receptor [2]; [4]): 11 nM

COc1ccc(Oc2nc(-c3cncc(S(C)(=O)=O)c3)ncc2NC[C@@H]2CCCN2)cc1 [Cpd 108]
Ki (delta opioid receptor [2]; [5]): 107 nM

COc1ccc(Oc2nc(-c3cncnc3)ncc2NC[C@H]2CCCC[C@@H]2N)cc1 [Cpd 300]
EC50 (delta opioid receptor [1]; [3]): 1.05 µM | GTPγS δ-opioid receptor Rel Efficacy (delta opioid receptor [1]): 0.968 | Ki (delta opioid receptor [2]; [5]): 21 nM

CCCOc1ccc(Oc2nc(-c3cncc(F)c3)ncc2NC[C@@H]2CCCN2)cc1 [Cpd 115]
EC50 (delta opioid receptor [1]; [3]): 2.71 µM | Ki (delta opioid receptor [2]; [4]): 52 nM

COc1ccc(Oc2nc(-c3cncnc3)ncc2NCC2CNCCO2)cc1 (stereo not drawn) [Cpd 277]
EC50 (delta opioid receptor [1]; [3]): 1.09 µM | GTPγS δ-opioid receptor Rel Efficacy (delta opioid receptor [1]): 1.012 | Ki (delta opioid receptor [2]; [5]): 32 nM

Cc1nc2ccc(Oc3nc(-c4cncc(C#N)c4)ncc3NC[C@@H]3CCCN3)cc2s1 [Cpd 90]
EC50 (delta opioid receptor [1]; [3]): 0.923 µM | Ki (delta opioid receptor [2]; [4]): 9 nM

CCCOc1ccc(Oc2nc(-c3cncnc3)ncc2NC[C@@H]2CCCN2)cc1 [Cpd 114]
EC50 (delta opioid receptor [1]; [3]): 0.306 µM | Ki (delta opioid receptor [2]; [4]): 8 nM

COc1ccc(Oc2nc(-c3cncc(C#N)c3)ncc2NCCN)cc1 [Cpd 293]
EC50 (delta opioid receptor [1]; [3]): 0.317 µM | Ki (delta opioid receptor [2]; [4]): 8 nM

COc1ccc(Oc2nc(-c3cncc(C#N)c3)ncc2NCC2CNCCO2)cc1 (stereo not drawn) [Cpd 275]
EC50 (delta opioid receptor [1]; [3]): 0.922 µM | Ki (delta opioid receptor [2]; [4]): 46 nM

COc1ccc(Oc2nc(-c3cncc(F)c3)ncc2NC[C@@H]2CCCN2)c(F)c1F [Cpd 102]
EC50 (delta opioid receptor [1]; [3]): 0.255 µM | Ki (delta opioid receptor [2]; [4]): 3 nM

COc1ccc(Oc2nc(-c3cncnc3)ncc2NC[C@@H]2C[C@H](F)CN2)cc1 [Cpd 89]
EC50 (delta opioid receptor [1]; [3]): 1.31 µM | Ki (delta opioid receptor [2]; [4]): 10 nM

COc1ccc(Oc2nc(-c3cc(Cl)cc(Cl)c3)ncc2NC[C@@H]2CCCN2)cc1 [Cpd 94]
Ki (delta opioid receptor [2]; [5]): 143 nM

Cc1nc2ccc(Oc3nc(-c4cncc(C#N)c4)ncc3NC[C@@H]3CCCN3)cc2s1 [Cpd 88]
EC50 (delta opioid receptor [1]; [3]): 0.478 µM | GTPγS δ-opioid receptor Rel Efficacy (delta opioid receptor [1]): 0.538 | Ki (delta opioid receptor [2]; [5]): 14 nM

COc1c(F)cc(Oc2nc(-c3cncnc3)ncc2NC[C@@H]2CCCN2)cc1F [Cpd 97]
EC50 (delta opioid receptor [1]; [3]): 7.12 µM | Ki (delta opioid receptor [2]; [4]): 39 nM

COc1ccc(Oc2nc(-c3cncc(F)c3)ncc2NCC2CNCCO2)cc1 (stereo not drawn) [Cpd 276]
Ki (delta opioid receptor [2]; [5]): 227 nM

COc1ccc(Oc2nc(-c3cccnc3)ncc2NC[C@@H]2C[C@@H](O)CN2)cc1 [Cpd 270, 5-(S)-{[4-(4-Methoxy-phenoxy)-2-(pyridin-3-yl)-pyrimidin-5-ylamino]-methyl}-pyrrolidin-3-(R)-ol]
EC50 (delta opioid receptor [1]; [3]): 0.197 µM | GTPγS δ-opioid receptor Rel Efficacy (delta opioid receptor [1]): 0.820

CN1CCN(C(=O)c2cccc(Oc3nc(-c4cncc(F)c4)ncc3NC[C@@H]3CCCN3)c2)CC1 [Cpd 174]
GTPγS δ-RelEfficacy @200 nM (delta opioid receptor [1]): 0.205

COc1ccc(Oc2nc(-c3cncc(C#N)c3)ncc2N2CC(CN)C2)cc1 [Cpd 331]
GTPγS δ-RelEfficacy @200 nM (delta opioid receptor [1]): 0.764 | EC50 (delta opioid receptor [1]; [3]): 0.108 µM | GTPγS δ-opioid receptor Rel Efficacy (delta opioid receptor [1]): 0.928

COc1ccc(Oc2nc(-c3ccc4cc[nH]c4c3)ncc2NC[C@@H]2CCCN2)cc1 [Cpd 118]
Ki (delta opioid receptor [2]; [5]): 155 nM

COc1ccc(Oc2nc(-c3cccnc3)ncc2N[C@H]2CC[C@@H](N)CC2)cc1 [Cpd 305]
GTPγS δ-RelEfficacy @200 nM (delta opioid receptor [1]): 0.780 | EC50 (delta opioid receptor [1]; [6]): 0.09 µM | GTPγS δ-opioid receptor Rel Efficacy (delta opioid receptor [1]): 1.081

COc1ccc(Oc2nc(-c3cncc(SC)c3)ncc2N2CCNC(C)(C)C2)cc1 [Cpd 350]
EC50 (delta opioid receptor [1]; [6]): 0.083 µM | GTPγS δ-opioid receptor Rel Efficacy (delta opioid receptor [1]): 1.079

COc1ccc(Oc2nc(-c3cccnc3)ncc2NC2CCCCC2N)cc1 (single isomer, unassigned) [Cpd 308]
GTPγS δ-RelEfficacy @200 nM (delta opioid receptor [1]): 0.140

CCCCOc1ccc(Oc2nc(-c3cncc(F)c3)ncc2NC[C@@H]2CCCN2)cc1 [Cpd 127]
Ki (delta opioid receptor [2]; [5]): 224 nM

COc1ccc(Oc2nc(-c3cncc(C#N)c3)ncc2NC2CCNCC2)cc1 [Cpd 208]
GTPγS δ-RelEfficacy @200 nM (delta opioid receptor [1]): 0.398

CSc1cncc(-c2ncc(NC[C@@H]3CCCN3)c(Oc3cccc(OC(C)=O)c3)n2)c1 [Cpd 248]
GTPγS δ-RelEfficacy @200 nM (delta opioid receptor [1]): 0.754 | EC50 (delta opioid receptor [1]; [6]): 0.047 µM | GTPγS δ-opioid receptor Rel Efficacy (delta opioid receptor [1]): 1.084

COc1ccc(Oc2nc(-c3cnc(Cl)cc3C)ncc2NC[C@@H]2CCCN2)cc1 [Cpd 265]
EC50 (delta opioid receptor [1]; [6]): 0.053 µM | GTPγS δ-opioid receptor Rel Efficacy (delta opioid receptor [1]): 1.024

COc1ccc(Oc2nc(-c3cccnc3)ncc2N2CCN[C@@H](C)C2)cc1 [Cpd 356]
EC50 (delta opioid receptor [1]; [3]): 0.031 µM | GTPγS δ-opioid receptor Rel Efficacy (delta opioid receptor [1]): 1.030

COc1ccc(Oc2nc(-c3cncc(F)c3)ncc2NC[C@@H]2CCCN2)cc1C [Cpd 205]
GTPγS δ-RelEfficacy @200 nM (delta opioid receptor [1]): 0.609 | EC50 (delta opioid receptor [1]; [6]): 0.044 µM | GTPγS δ-opioid receptor Rel Efficacy (delta opioid receptor [1]): 1.178

COc1ccc(Oc2nc(-c3cnc(-c4cnc(Cl)c(C)c4)c(C)c3)ncc2NC[C@@H]2CCCN2)cc1 [Cpd 264]
EC50 (delta opioid receptor [1]; [3]): 0.12 µM | GTPγS δ-opioid receptor Rel Efficacy (delta opioid receptor [1]): 1.036

CCc1ccc(Oc2nc(-c3cccnc3)ncc2NC[C@@H]2CCCN2)cc1 [Cpd 184]
GTPγS δ-RelEfficacy @200 nM (delta opioid receptor [1]): 0.497 | EC50 (delta opioid receptor [1]; [3]): 0.418 µM | GTPγS δ-opioid receptor Rel Efficacy (delta opioid receptor [1]): 1.271

COc1ccc(Oc2nc(-c3cnccn3)ncc2NC[C@@H]2CCCN2)cc1 [Cpd 120]
Ki (delta opioid receptor [2]; [5]): 104 nM

COc1ccc(Oc2nc(-c3cncc(C#N)c3)ncc2NCc2[nH]cnc2C)cc1 [Cpd 285, 5-{4-(4-Methoxy-phenoxy)-5-[(5-methyl-3H-imidazol-4-ylmethyl)-amino]-pyrimidin-2-yl}-nicotinonitrile]
GTPγS δ-RelEfficacy @200 nM (delta opioid receptor [1]): 0.730 | EC50 (delta opioid receptor [1]; [6]): 0.027 µM | GTPγS δ-opioid receptor Rel Efficacy (delta opioid receptor [1]): 0.782

CC(=O)Oc1cccc(Oc2nc(-c3cncc(C)c3)ncc2NC[C@@H]2CCCN2)c1 [Cpd 251]
GTPγS δ-RelEfficacy @200 nM (delta opioid receptor [1]): 0.955 | EC50 (delta opioid receptor [1]; [6]): 0.015 µM | GTPγS δ-opioid receptor Rel Efficacy (delta opioid receptor [1]): 1.145

COc1ccc(Oc2nc(-c3cccnc3)ncc2N2C[C@@H](C)N[C@@H](C)C2)cc1 [Cpd 359]
EC50 (delta opioid receptor [1]; [6]): 0.034 µM | GTPγS δ-opioid receptor Rel Efficacy (delta opioid receptor [1]): 0.709

FCc1ccc(Oc2nc(-c3cccnc3)ncc2NC[C@@H]2CCCN2)cc1 [Cpd 217, [4-(4-Fluoromethyl-phenoxy)-2-pyridin-3-yl-pyrimidin-5-yl]-pyrrolidin-2-(S)-ylmethyl-amine]
GTPγS δ-RelEfficacy @200 nM (delta opioid receptor [1]): 0.480 | EC50 (delta opioid receptor [1]; [3]): 0.612 µM | GTPγS δ-opioid receptor Rel Efficacy (delta opioid receptor [1]): 0.882

COc1ccc(Oc2nc(-c3cccnc3)ncc2NC[C@@H]2C[C@H](O)CN2)cc1 [Cpd 272]
EC50 (delta opioid receptor [1]; [3]): > 1 µM

COc1ccc(Oc2nc(-c3ccccc3)ncc2N2CCNCC2)cc1 [Cpd 324]
GTPγS δ-RelEfficacy @200 nM (delta opioid receptor [1]): 0.519 | EC50 (delta opioid receptor [1]; [3]): 0.428 µM | GTPγS δ-opioid receptor Rel Efficacy (delta opioid receptor [1]): 1.045

COc1ccc(Oc2nc(-c3cc(C)cnc3Cl)ncc2NC[C@@H]2CCCN2)cc1 [Cpd 268]
EC50 (delta opioid receptor [1]; [6]): 0.081 µM | GTPγS δ-opioid receptor Rel Efficacy (delta opioid receptor [1]): 1.023

Cc1cccc(Oc2nc(-c3cncc(F)c3)ncc2NC[C@@H]2CCCN2)c1 [Cpd 202]
GTPγS δ-RelEfficacy @200 nM (delta opioid receptor [1]): 0.122

CCCCOc1ccc(Oc2nc(-c3cncc(C#N)c3)ncc2NC[C@@H]2CCCN2)cc1 [Cpd 125]
Ki (delta opioid receptor [2]; [4]): 78 nM

CCN(CC)C(=O)c1cccc(Oc2nc(-c3cncc(F)c3)ncc2NC[C@@H]2CCCN2)c1 [Cpd 170]
GTPγS δ-RelEfficacy @200 nM (delta opioid receptor [1]): 0.176

CCCCOc1ccc(Oc2nc(-c3cncnc3)ncc2NC[C@@H]2CCCN2)cc1 [Cpd 126]
Ki (delta opioid receptor [2]; [5]): 565 nM

COc1ccc(Oc2nc(-c3cnc(Cl)c(C)c3)ncc2NC[C@@H]2CCCN2)cc1 [Cpd 266]
EC50 (delta opioid receptor [1]; [6]): 0.018 µM | GTPγS δ-opioid receptor Rel Efficacy (delta opioid receptor [1]): 1.041

COc1ccc(Oc2nc(-c3cccnc3)ncc2N[C@H]2CCC[C@@H](N)C2)cc1 [Cpd 321]
EC50 (delta opioid receptor [1]; [6]): 0.005 µM | GTPγS δ-opioid receptor Rel Efficacy (delta opioid receptor [1]): 1.022

COc1ccc(Oc2nc(-c3cccnc3)ncc2N[C@@H]2CCNC2)cc1 [Cpd 224]
GTPγS δ-RelEfficacy @200 nM (delta opioid receptor [1]): 0.460 | EC50 (delta opioid receptor [1]; [3]): 0.214 µM | GTPγS δ-opioid receptor Rel Efficacy (delta opioid receptor [1]): 1.104
